Data reported in US8802895B2, “Amide derivatives of benzene-sulfonanilide, pharmaceutical composition thereof and method for cancer treatment using the same” (Cleveland State University, priority 2010, dated 2014).

Experiments:
SF-539 = experiment: NCIDTP 60 cancer cell lines screening, CNS Cancer panel; format: cell-based
HOP-62 = experiment: NCIDTP 60 cancer cell lines screening, Non-Small Cell Lung Cancer panel; format: cell-based
RPMI-8226 = experiment: NCIDTP 60 cancer cell lines screening, Leukemia panel; format: cell-based
SF-295 = experiment: NCIDTP 60 cancer cell lines screening, CNS Cancer panel; format: cell-based
OVCAR-3 = experiment: NCIDTP 60 cancer cell lines screening, Ovarian Cancer panel; format: cell-based
MOLT-4 = experiment: NCIDTP 60 cancer cell lines screening, Leukemia panel; format: cell-based
SF-268 = experiment: NCIDTP 60 cancer cell lines screening, CNS Cancer panel; format: cell-based
HCC-2998 = experiment: NCIDTP 60 cancer cell lines screening, Colon Cancer panel; format: cell-based
IGROV1 = experiment: NCIDTP 60 cancer cell lines screening, Ovarian Cancer panel; format: cell-based
HL-60(TB) = experiment: NCIDTP 60 cancer cell lines screening, Leukemia panel; format: cell-based
TK-10 = experiment: NCIDTP 60 cancer cell lines screening, Renal Cancer panel; format: cell-based
DU-145 = experiment: NCIDTP 60 cancer cell lines screening, Prostate Cancer panel; format: cell-based
HOP-92 = experiment: NCIDTP 60 cancer cell lines screening, Non-Small Cell Lung Cancer panel; format: cell-based
PC-3 = experiment: NCIDTP 60 cancer cell lines screening, Prostate Cancer panel; format: cell-based
[1] = test system: HT29 colon cancer xenograft; experiment: In vivo study, HT29 colon cancer xenograft model (FIG. 11); design: species or system BALB/c athymic nude mice; conditions: HT29 xenograft in nude mice, 5 mg/kg/day, i.p., 20 days
Description: HT29 colon cancer xenograft model is a generally accepted in vivo cancer model and the formed tumor grows very aggressively. […] In the experiment, HT29 xenografts were established in ovariectomized 5- to 6-week-old BALB/c athymic nude mice (Case Western Reserve University animal facility). When tumors reach 150-200 mm^3 (i.e., in 2-4 weeks), the animals are randomly allocated (n=3 per group) to be treated with the compounds or vehicle (1% Tween 80) administered via i.p. Tumor growth was assessed and tumor weights were measured at the end of the experiment after the mice were killed. The animal care was in accordance with institutional guidelines.

SK-MEL-28 = experiment: NCIDTP 60 cancer cell lines screening, Melanoma panel; format: cell-based
M14 = experiment: as above; format: cell-based

## Cc1ccc(C)c(COc2cc(NC(=O)c3ccc4c(c3)OCO4)ccc2N(C)S(C)(=O)=O)c1 [Compound #10, Benzo[1,3]dioxole-5-carboxylic acid [3-(2,5-dimethyl-benzyloxy)-4-(methanesulfonyl-methyl-amino)-phenyl]-amide]
SF-539; Homo sapiens, SF-539
  GI50: 125 nM
SF-539; Homo sapiens, SF-539, read-out: LC50
  CC50: > 100000 nM
SF-539; SF-539, Log10 Concentration −5.0 Molar
  Percent Growth: −10%
SF-539; SF-539, Log10 Concentration −6.0 Molar
  Percent Growth: −10%
SF-539; SF-539, Log10 Concentration −7.0 Molar
  Percent Growth: 56%
SF-539; SF-539, Log10 Concentration −8.0 Molar
  Percent Growth: 91%
HOP-62; HOP-62
  TGI: >1.00E−4 Molar
HOP-62; HOP-62, Log10 Concentration −4.0 Molar
  Percent Growth: 19%
HOP-62; HOP-62, Log10 Concentration −5.0 Molar
  Percent Growth: 18%
HOP-62; HOP-62, Log10 Concentration −6.0 Molar
  Percent Growth: 18%
HOP-62; HOP-62, Log10 Concentration −7.0 Molar
  Percent Growth: 84%
HOP-62; HOP-62, Log10 Concentration −8.0 Molar
  Percent Growth: 102%
HOP-62; Homo sapiens, HOP-62
  GI50: 329 nM
HOP-62; Homo sapiens, HOP-62, read-out: LC50
  CC50: > 100000 nM
RPMI-8226; Homo sapiens, RPMI-8226
  GI50: 290 nM
RPMI-8226; Homo sapiens, RPMI-8226, read-out: LC50
  CC50: > 100000 nM
RPMI-8226; RPMI-8226, Log10 Concentration −4.0 Molar
  Percent Growth: 6%
RPMI-8226; RPMI-8226, Log10 Concentration −5.0 Molar
  Percent Growth: −2%
RPMI-8226; RPMI-8226, Log10 Concentration −6.0 Molar
  Percent Growth: 14%
RPMI-8226; RPMI-8226, Log10 Concentration −7.0 Molar
  Percent Growth: 81%
RPMI-8226; RPMI-8226, Log10 Concentration −8.0 Molar
  Percent Growth: 93%
SF-295; Homo sapiens, SF-295
  GI50: 98.3 nM
SF-295; Homo sapiens, SF-295, read-out: LC50
  CC50: > 100000 nM
SF-295; SF-295
  TGI: 6.26E−7 Molar
SF-295; SF-295, Log10 Concentration −4.0 Molar
  Percent Growth: −15%
SF-295; SF-295, Log10 Concentration −5.0 Molar
  Percent Growth: −16%
SF-295; SF-295, Log10 Concentration −6.0 Molar
  Percent Growth: −13%
SF-295; SF-295, Log10 Concentration −7.0 Molar
  Percent Growth: 50%
SF-295; SF-295, Log10 Concentration −8.0 Molar
  Percent Growth: 92%
OVCAR-3
  TGI: 1.66E−7 Molar
OVCAR-3; Homo sapiens
  GI50: 39.6 nM
OVCAR-3; Log10 Concentration −4.0 Molar
  Percent Growth: −32%
OVCAR-3; Log10 Concentration −5.0 Molar
  Percent Growth: −44%
OVCAR-3; Log10 Concentration −6.0 Molar
  Percent Growth: −67%
OVCAR-3; Log10 Concentration −7.0 Molar
  Percent Growth: 19%
OVCAR-3; Log10 Concentration −8.0 Molar
  Percent Growth: 96%
MOLT-4; Homo sapiens, MOLT-4
  GI50: 163 nM
MOLT-4; Homo sapiens, MOLT-4, read-out: LC50
  CC50: > 100000 nM
MOLT-4; MOLT-4
  TGI: >1.00E−4 Molar
MOLT-4; MOLT-4, Log10 Concentration −4.0 Molar
  Percent Growth: 13%
MOLT-4; MOLT-4, Log10 Concentration −5.0 Molar
  Percent Growth: 7%
MOLT-4; MOLT-4, Log10 Concentration −6.0 Molar
  Percent Growth: 12%
MOLT-4; MOLT-4, Log10 Concentration −7.0 Molar
  Percent Growth: 80%
MOLT-4; MOLT-4, Log10 Concentration −8.0 Molar
  Percent Growth: 99%
SF-268; Homo sapiens, SF-268
  GI50: 288 nM
SF-268; Homo sapiens, SF-268, read-out: LC50
  CC50: > 100000 nM
SF-268; SF-268
  TGI: >1.00E−4 Molar
SF-268; SF-268, Log10 Concentration −4.0 Molar
  Percent Growth: 16%
SF-268; SF-268, Log10 Concentration −5.0 Molar
  Percent Growth: 9%
SF-268; SF-268, Log10 Concentration −6.0 Molar
  Percent Growth: 19%
SF-268; SF-268, Log10 Concentration −7.0 Molar
  Percent Growth: 77%
SF-268; SF-268, Log10 Concentration −8.0 Molar
  Percent Growth: 93%
HCC-2998; HCC-2998
  TGI: 3.92E−7 Molar
HCC-2998; HCC-2998, Log10 Concentration −4.0 Molar
  Percent Growth: −64%
HCC-2998; HCC-2998, Log10 Concentration −5.0 Molar
  Percent Growth: −61%
HCC-2998; HCC-2998, Log10 Concentration −6.0 Molar
  Percent Growth: −40%
HCC-2998; HCC-2998, Log10 Concentration −7.0 Molar
  Percent Growth: 58%
HCC-2998; HCC-2998, Log10 Concentration −8.0 Molar
  Percent Growth: 99%
HCC-2998; Homo sapiens, HCC 2998, read-out: LC50
  CC50: 2970 nM
HCC-2998; Homo sapiens, HCC-2998
  GI50: 120 nM
IGROV1; Homo sapiens, IGROV-1, read-out: LC50
  CC50: > 100000 nM
IGROV1; Homo sapiens, IGROV-1, IGROV1
  GI50: 237 nM
IGROV1; IGROV1
  TGI: >1.00E−4 Molar
IGROV1; IGROV1, Log10 Concentration −4.0 Molar
  Percent Growth: 13%
IGROV1; IGROV1, Log10 Concentration −5.0 Molar
  Percent Growth: 13%
IGROV1; IGROV1, Log10 Concentration −6.0 Molar
  Percent Growth: 18%
IGROV1; IGROV1, Log10 Concentration −7.0 Molar
  Percent Growth: 69%
IGROV1; IGROV1, Log10 Concentration −8.0 Molar
  Percent Growth: 92%
HL-60(TB); HL-60(TB)
  TGI: 9.67E−8 Molar
HL-60(TB); HL-60(TB), Log10 Concentration −4.0 Molar
  Percent Growth: −20%
HL-60(TB); HL-60(TB), Log10 Concentration −5.0 Molar
  Percent Growth: −20%
HL-60(TB); HL-60(TB), Log10 Concentration −6.0 Molar
  Percent Growth: −12%
HL-60(TB); HL-60(TB), Log10 Concentration −7.0 Molar
  Percent Growth: −1%
HL-60(TB); HL-60(TB), Log10 Concentration −8.0 Molar
  Percent Growth: 89%
HL-60(TB); Homo sapiens, HL-60, read-out: LC50
  CC50: > 100000 nM
HL-60(TB); Homo sapiens, HL-60(TB)
  GI50: 26.9 nM
TK-10; Homo sapiens, TK-10
  GI50: 354 nM
TK-10; Homo sapiens, TK-10, read-out: LC50
  CC50: > 100000 nM
TK-10; TK-10
  TGI: >1.00E−4 Molar
TK-10; TK-10, Log10 Concentration −4.0 Molar
  Percent Growth: 9%
TK-10; TK-10, Log10 Concentration −5.0 Molar
  Percent Growth: 6%
TK-10; TK-10, Log10 Concentration −6.0 Molar
  Percent Growth: 18%
TK-10; TK-10, Log10 Concentration −7.0 Molar
  Percent Growth: 88%
TK-10; TK-10, Log10 Concentration −8.0 Molar
  Percent Growth: 92%
DU-145; DU-145
  TGI: 4.57E−7 Molar
DU-145; DU-145, Log10 Concentration −4.0 Molar
  Percent Growth: −28%
DU-145; DU-145, Log10 Concentration −5.0 Molar
  Percent Growth: −39%
DU-145; DU-145, Log10 Concentration −6.0 Molar
  Percent Growth: −37%
DU-145; DU-145, Log10 Concentration −7.0 Molar
  Percent Growth: 72%
DU-145; DU-145, Log10 Concentration −8.0 Molar
  Percent Growth: 96%
DU-145; Homo sapiens, DU-145
  GI50: 159 nM
DU-145; Homo sapiens, DU-145, read-out: LC50
  CC50: > 100000 nM
HOP-92; HOP-92
  TGI: >1.00E−4 Molar
HOP-92; HOP-92, Log10 Concentration −4.0 Molar
  Percent Growth: 37%
HOP-92; HOP-92, Log10 Concentration −5.0 Molar
  Percent Growth: 39%
HOP-92; HOP-92, Log10 Concentration −6.0 Molar
  Percent Growth: 62%
HOP-92; HOP-92, Log10 Concentration −7.0 Molar
  Percent Growth: 62%
HOP-92; HOP-92, Log10 Concentration −8.0 Molar
  Percent Growth: 78%
HOP-92; Homo sapiens, HOP-92
  GI50: 32.2 nM
HOP-92; Homo sapiens, HOP-92, read-out: LC50
  CC50: > 100000 nM
PC-3; Homo sapiens, PC-3
  GI50: 67.7 nM
PC-3; Homo sapiens, PC-3, read-out: LC50
  CC50: > 100000 nM
PC-3; PC-3
  TGI: >1.00E−4 Molar
PC-3; PC-3, Log10 Concentration −4.0 Molar
  Percent Growth: 21%
PC-3; PC-3, Log10 Concentration −5.0 Molar
  Percent Growth: 20%
PC-3; PC-3, Log10 Concentration −6.0 Molar
  Percent Growth: 21%
PC-3; PC-3, Log10 Concentration −7.0 Molar
  Percent Growth: 41%
PC-3; PC-3, Log10 Concentration −8.0 Molar
  Percent Growth: 92%
[1]
  tumor growth: significantly inhibited the tumor growth
SK-MEL-28; Homo sapiens, SK-MEL-28
  GI50: 692 nM
SK-MEL-28; Homo sapiens, SK-MEL-28, read-out: LC50
  CC50: > 100000 nM
SK-MEL-28; SK-MEL-28
  TGI: >1.00E−4 Molar
SK-MEL-28; SK-MEL-28, Log10 Concentration −4.0 Molar
  Percent Growth: 50%
SK-MEL-28; SK-MEL-28, Log10 Concentration −5.0 Molar
  Percent Growth: 49%
SK-MEL-28; SK-MEL-28, Log10 Concentration −6.0 Molar
  Percent Growth: 44%
SK-MEL-28; SK-MEL-28, Log10 Concentration −7.0 Molar
  Percent Growth: 83%
SK-MEL-28; SK-MEL-28, Log10 Concentration −8.0 Molar
  Percent Growth: 91%
M14; Homo sapiens, M14
  GI50: 75.7 nM
M14; Homo sapiens, M14, read-out: LC50
  CC50: > 100000 nM
M14; M14
  TGI: 6.69E−7 Molar
M14; M14, Log10 Concentration −4.0 Molar
  Percent Growth: −29%
M14; M14, Log10 Concentration −5.0 Molar
  Percent Growth: −45%
M14; M14, Log10 Concentration −6.0 Molar
  Percent Growth: −9%
M14; M14, Log10 Concentration −7.0 Molar
  Percent Growth: 45%
M14; M14, Log10 Concentration −8.0 Molar
  Percent Growth: 90%
